Measured values from the NIST ThermoML archive (doi:10.1016/j.jct.2017.03.019).
Numbers after ± are expanded uncertainties. Each block holds one compound with its values, some of them ahead of it.

Columns and labels:
[1] = 298.2 K; 101.33 kPa; Liquid; Vibrating tube method
[2] = refractive index (Na D-line) (dimensionless); conditions: 298.2 K; 101.33 kPa; Liquid; Standard Abbe refractometry
[3] = wn = mass fraction of the nth substance listed; conditions: 298.2 K, 100 kPa, Liquid, Vibrating tube method
[4] = refractive index (Na D-line) (dimensionless); wn = mass fraction of the nth substance listed; conditions: 298.2 K, 100 kPa, Liquid, Standard Abbe refractometry

mass density [1]: 805.81 ± 1.9 kg/m3
refractive index [2]: 1.3973 ± 0.0032
SMILES: CCCCO [butan-1-ol]

mass density ([3]; w2 = 0.2058): 844.74 ± 3.5 kg/m3
mass density ([3]; w2 = 0.9265): 986.16 ± 3.8 kg/m3
refractive index ([4]; w2 = 0.2058): 1.3885 ± 0.0036
refractive index ([4]; w2 = 0.9265): 1.3402 ± 0.0036
SMILES: CCCCO [butan-1-ol] + O

mass density [1]: 802.49 ± 0.95 kg/m3
refractive index [2]: 1.3952 ± 0.0016
SMILES: CCC(C)O (stereo not given) [butan-2-ol]

mass density ([3]; w2 = 0.3523): 874.34 ± 3.6 kg/m3
mass density ([3]; w2 = 0.8131): 968.42 ± 3.7 kg/m3
refractive index ([4]; w2 = 0.3523): 1.3812 ± 0.0036
refractive index ([4]; w2 = 0.8131): 1.3513 ± 0.0036
SMILES: CCC(C)O (stereo not given) [butan-2-ol] + O

mass density [1]: 805.37 ± 1.9 kg/m3
refractive index [2]: 1.4044 ± 0.0032
SMILES: CCCC(C)O (stereo not given) [pentan-2-ol]

mass density ([3]; w2 = 0.1177): 827.45 ± 3.5 kg/m3
mass density ([3]; w2 = 0.9477): 989.77 ± 3.8 kg/m3
refractive index ([4]; w2 = 0.1177): 1.3992 ± 0.0036
refractive index ([4]; w2 = 0.9477): 1.3377 ± 0.0036
SMILES: CCCC(C)O (stereo not given) [pentan-2-ol] + O

mass density [1]: 997.17 ± 1.9 kg/m3
refractive index [2]: 1.3325 ± 0.0032
SMILES: O [water]
